Results from ChEMBL document CHEMBL4613250, “Discovery of 4-((2S,4S)-4-Ethoxy-1-((5-methoxy-7-methyl-1H-indol-4-yl)methyl)piperidin-2-yl)benzoic Acid (LNP023), a Factor B Inhibitor Specifically Designed To Be Applicable to Treating a Diverse Array of Complement Mediated Diseases” (J Med Chem, 2020).

Tests used:
[1] = Clearance in beagle dog at 0.1 mg/kg, iv after 15 mins to 24 hrs by HPLC-MS/MS analysis; format: ADME, organism-based, Canis lupus familiaris; settings: in vivo
[2] = Cmax/dose in Wistar Han rat at 30 mg/kg, po after 0.5 to 24 hrs by HPLC-MS/MS analysis; format: ADME, organism-based; settings: in vivo
[3] = Clearance in Wistar Han rat at 1 mg/kg, iv after 0.5 to 24 hrs by HPLC-MS/MS analysis; format: ADME, organism-based; settings: in vivo
[4] = Tmax in Wistar Han rat at 30 mg/kg, po after 0.5 to 24 hrs by HPLC-MS/MS analysis; format: ADME, organism-based; settings: in vivo
[5] = Half life in Wistar Han rat at 1 mg/kg, iv after 0.5 to 24 hrs by HPLC-MS/MS analysis; format: ADME, organism-based; settings: in vivo
[6] = Oral bioavailability in beagle dog at 10 mg/kg after 15 mins to 24 hrs by HPLC-MS/MS analysis; format: ADME, organism-based, Canis lupus familiaris; settings: in vivo
[7] = AUC/dose in Wistar Han rat at 1 mg/kg, iv after 0.5 to 24 hrs by HPLC-MS/MS analysis; format: ADME, organism-based; settings: in vivo
[8] = Mean residence time in beagle dog at 0.1 mg/kg, iv after 15 mins to 24 hrs by HPLC-MS/MS analysis; format: ADME, organism-based, Canis lupus familiaris; settings: in vivo
[9] = Mean residence time in Wistar Han rat at 1 mg/kg, iv after 0.5 to 24 hrs by HPLC-MS/MS analysis; format: ADME, organism-based; settings: in vivo
[10] = Oral bioavailability in Wistar Han rat at 30 mg/kg after 0.5 to 24 hrs by HPLC-MS/MS analysis; format: ADME, organism-based; settings: in vivo
[11] = Half life in beagle dog at 0.1 mg/kg, iv after 15 mins to 24 hrs by HPLC-MS/MS analysis; format: ADME, organism-based, Canis lupus familiaris; settings: in vivo
[12] = species: Canis familiaris; experiment: animal or person; settings: Canis lupus familiaris, beagle, po, 12 h, read-out: INH
[13] = AUC/dose in beagle dog at 10 mg/kg, po after 15 mins to 24 hrs by HPLC-MS/MS analysis; format: ADME, organism-based, Canis lupus familiaris; settings: in vivo
[14] = species: Canis familiaris; experiment: animal or person; settings: Canis lupus familiaris, beagle, po, 6 h, read-out: INH
[15] = AUC/dose in Wistar Han rat at 30 mg/kg, po after 0.5 to 24 hrs by HPLC-MS/MS analysis; format: ADME, organism-based; settings: in vivo
[16] = Cmax/dose in beagle dog at 10 mg/kg, po after 15 mins to 24 hrs by HPLC-MS/MS analysis; format: ADME, organism-based, Canis lupus familiaris; settings: in vivo
[17] = Tmax in beagle dog at 10 mg/kg, po after 15 mins to 24 hrs by HPLC-MS/MS analysis; format: ADME, organism-based, Canis lupus familiaris; settings: in vivo
[18] = Volume of distribution at steady state in Wistar Han rat at 1 mg/kg, iv after 0.5 to 24 hrs by HPLC-MS/MS analysis; format: ADME, organism-based; settings: in vivo, read-out: Vdss
[19] = AUC/dose in beagle dog at 0.1 mg/kg, iv after 15 mins to 24 hrs by HPLC-MS/MS analysis; format: ADME, organism-based, Canis lupus familiaris; settings: in vivo
[20] = Volume of distribution at steady state in beagle dog at 0.1 mg/kg, iv after 15 mins to 24 hrs by HPLC-MS/MS analysis; format: ADME, organism-based, Canis lupus familiaris; settings: in vivo, read-out: Vdss

In the case of `CCO[C@H]1CCN(Cc2c(OC)cc(C)c3[nH]ccc23)[C@H](c2ccc(C(=O)O)cc2)C1.Cl`, the clearance [1] is reported as 2 mL/min/kg, the Cmax/dose [2] is reported as 410 nM and the clearance [3] is reported as 8 mL/min/kg. It also gave a Tmax [4] of 2 h, a half-life [5] of 7 h and a bioavailability [6] of 60%. For the same compound, the AUC/dose [7] was 5200 nM·h, the MRT [8] was 5.5 h and the MRT [9] was 3.4 h. The bioavailability [10] was 40%, the half-life [11] was 5.6 h and the inhibition in vivo at 3 mg/kg [12] was 55%. It also gave an AUC/dose [13] of 12700 nM·h, an inhibition in vivo at 3 mg/kg [14] of 100% and an AUC/dose [15] of 2100 nM·h. The Cmax/dose [16] was 2200 nM, the Tmax [17] was 0.8 h and the Vd [18] was 2.3 L/kg. For the same compound, the AUC/dose [19] was 21000 nM·h and the Vd [20] was 0.6 L/kg.
